This passage reports % of control, % of inhibition and % binding results from ChEMBL document CHEMBL5465560, “Selectivity Literature for EUbOPEN Chemogenomic Library” (2024).

The target in assay [1] is Insulin-like growth factor 1 receptor (Homo sapiens, UniProt P08069). Particulars: at 10 µM.
Assay [2] addresses CDK7/Cyclin H/MNAT1 (Homo sapiens) (UniProt P51946+P50613+P51948). Description: Selectivity interaction (Millipore kinase profiler) EUB0000124b CDK7. Particulars: at 10 µM. It counts as protein-complex assay.
Assay [3] concerns the target T1, Serine/threonine-protein kinase BRSK2 (Homo sapiens) (UniProt Q8IWQ3).
T1 sequence (whole entry): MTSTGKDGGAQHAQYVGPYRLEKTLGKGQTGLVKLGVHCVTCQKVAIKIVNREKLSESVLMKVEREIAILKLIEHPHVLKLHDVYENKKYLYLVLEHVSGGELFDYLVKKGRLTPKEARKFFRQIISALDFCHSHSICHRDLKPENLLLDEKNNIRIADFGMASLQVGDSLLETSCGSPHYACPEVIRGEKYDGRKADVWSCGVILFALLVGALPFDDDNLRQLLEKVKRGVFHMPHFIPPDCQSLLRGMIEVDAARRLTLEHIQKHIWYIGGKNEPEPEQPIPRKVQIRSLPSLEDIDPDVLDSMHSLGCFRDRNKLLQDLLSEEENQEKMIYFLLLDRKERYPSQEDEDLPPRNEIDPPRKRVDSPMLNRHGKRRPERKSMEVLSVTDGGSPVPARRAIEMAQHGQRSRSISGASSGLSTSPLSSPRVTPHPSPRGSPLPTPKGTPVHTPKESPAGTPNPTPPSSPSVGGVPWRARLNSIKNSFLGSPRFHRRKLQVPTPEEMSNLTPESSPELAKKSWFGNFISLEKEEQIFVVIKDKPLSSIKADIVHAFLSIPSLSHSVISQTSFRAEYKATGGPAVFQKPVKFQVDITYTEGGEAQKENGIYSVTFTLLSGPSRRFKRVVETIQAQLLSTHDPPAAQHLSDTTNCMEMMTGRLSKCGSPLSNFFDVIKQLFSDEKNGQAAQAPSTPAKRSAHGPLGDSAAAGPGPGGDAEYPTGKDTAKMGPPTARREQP
Description: Selectivity interaction (Kinase screening (Nanosyn)) EUB0000604a BRSK2.

Assay [4] concerns the target Casein kinase I isoform gamma-3 (Homo sapiens) (UniProt Q9Y6M4). Description: Selectivity interaction (KinomeScan (DiscoverX)) EUB0000666a CSNK1G3. Particulars: at 10 µM.
Assay [5] concerns the target Serine/threonine-protein kinase PAK 6 (Homo sapiens) (UniProt Q9NQU5). Description: Selectivity interaction (Kinase panel (Z-LYTE Assay)) EUB0001632a PAK6. Particulars: at 10 µM.
For assay [6], the target named is Mitogen-activated protein kinase kinase kinase kinase 1 (Homo sapiens) (UniProt Q92918). Description: Selectivity interaction (LanthaScreen Eu Kinase Binding Assay) EUB0001632a MAP4K1. Particulars: at 10 µM. (In general: In TR-FRET formats the signal depends on donor and acceptor labels being close together.)
Assay [7] addresses T2, Serine/threonine-protein kinase ULK2 (Homo sapiens) (UniProt Q8IYT8).
T2 sequence (whole entry): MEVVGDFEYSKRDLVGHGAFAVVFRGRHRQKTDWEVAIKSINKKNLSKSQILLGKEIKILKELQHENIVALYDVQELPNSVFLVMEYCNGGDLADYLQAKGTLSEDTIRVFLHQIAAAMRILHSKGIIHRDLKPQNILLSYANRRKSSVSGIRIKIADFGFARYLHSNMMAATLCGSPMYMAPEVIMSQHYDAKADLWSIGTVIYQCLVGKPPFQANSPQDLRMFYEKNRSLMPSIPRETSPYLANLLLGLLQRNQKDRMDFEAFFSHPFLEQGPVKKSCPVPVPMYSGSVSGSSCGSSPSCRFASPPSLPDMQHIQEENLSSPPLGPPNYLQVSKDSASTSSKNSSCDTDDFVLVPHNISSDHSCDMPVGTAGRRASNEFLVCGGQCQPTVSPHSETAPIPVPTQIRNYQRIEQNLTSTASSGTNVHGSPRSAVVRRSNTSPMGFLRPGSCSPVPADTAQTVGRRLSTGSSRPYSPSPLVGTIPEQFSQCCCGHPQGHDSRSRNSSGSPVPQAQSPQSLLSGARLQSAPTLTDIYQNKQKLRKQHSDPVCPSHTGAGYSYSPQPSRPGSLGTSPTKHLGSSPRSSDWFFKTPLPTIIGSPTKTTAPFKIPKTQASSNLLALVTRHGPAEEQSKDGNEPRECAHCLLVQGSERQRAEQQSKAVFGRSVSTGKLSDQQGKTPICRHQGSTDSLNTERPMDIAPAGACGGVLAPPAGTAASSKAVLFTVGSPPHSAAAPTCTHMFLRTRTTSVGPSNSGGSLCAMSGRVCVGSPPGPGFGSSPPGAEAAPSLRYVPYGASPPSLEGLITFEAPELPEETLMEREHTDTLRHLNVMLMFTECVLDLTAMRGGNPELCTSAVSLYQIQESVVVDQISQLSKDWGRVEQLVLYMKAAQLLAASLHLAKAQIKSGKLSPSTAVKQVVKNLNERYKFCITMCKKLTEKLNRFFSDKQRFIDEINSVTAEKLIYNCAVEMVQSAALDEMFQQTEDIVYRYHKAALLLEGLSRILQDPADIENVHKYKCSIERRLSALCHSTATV
As to the kind of experiment: Selectivity interaction (KinomeScan (DiscoverX)) EUB0000229b ULK2. The conditions noted are these: at 10 µM.

Insulin-like growth factor 1 receptor, sequence (P08069 31-736 limits assumed): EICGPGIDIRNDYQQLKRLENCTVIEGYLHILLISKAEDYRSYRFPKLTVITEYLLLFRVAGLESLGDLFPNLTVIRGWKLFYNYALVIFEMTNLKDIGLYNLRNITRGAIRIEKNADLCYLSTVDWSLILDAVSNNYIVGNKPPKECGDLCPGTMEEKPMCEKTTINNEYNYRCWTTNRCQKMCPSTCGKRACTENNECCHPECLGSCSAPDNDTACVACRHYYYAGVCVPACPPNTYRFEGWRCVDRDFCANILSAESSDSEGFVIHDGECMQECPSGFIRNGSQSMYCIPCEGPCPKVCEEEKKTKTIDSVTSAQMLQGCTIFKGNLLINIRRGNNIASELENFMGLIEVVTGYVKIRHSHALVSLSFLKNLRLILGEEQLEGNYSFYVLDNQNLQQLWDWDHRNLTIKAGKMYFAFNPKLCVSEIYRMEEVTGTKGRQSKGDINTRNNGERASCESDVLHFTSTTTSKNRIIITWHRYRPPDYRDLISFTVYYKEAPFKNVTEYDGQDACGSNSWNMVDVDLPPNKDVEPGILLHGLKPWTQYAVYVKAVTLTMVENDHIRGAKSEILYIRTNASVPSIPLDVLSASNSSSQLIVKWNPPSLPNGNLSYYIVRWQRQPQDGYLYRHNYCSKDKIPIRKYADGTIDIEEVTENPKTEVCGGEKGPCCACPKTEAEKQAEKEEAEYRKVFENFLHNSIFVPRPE
Insulin-like growth factor 1 receptor, sequence (P08069 741-1367 limits assumed): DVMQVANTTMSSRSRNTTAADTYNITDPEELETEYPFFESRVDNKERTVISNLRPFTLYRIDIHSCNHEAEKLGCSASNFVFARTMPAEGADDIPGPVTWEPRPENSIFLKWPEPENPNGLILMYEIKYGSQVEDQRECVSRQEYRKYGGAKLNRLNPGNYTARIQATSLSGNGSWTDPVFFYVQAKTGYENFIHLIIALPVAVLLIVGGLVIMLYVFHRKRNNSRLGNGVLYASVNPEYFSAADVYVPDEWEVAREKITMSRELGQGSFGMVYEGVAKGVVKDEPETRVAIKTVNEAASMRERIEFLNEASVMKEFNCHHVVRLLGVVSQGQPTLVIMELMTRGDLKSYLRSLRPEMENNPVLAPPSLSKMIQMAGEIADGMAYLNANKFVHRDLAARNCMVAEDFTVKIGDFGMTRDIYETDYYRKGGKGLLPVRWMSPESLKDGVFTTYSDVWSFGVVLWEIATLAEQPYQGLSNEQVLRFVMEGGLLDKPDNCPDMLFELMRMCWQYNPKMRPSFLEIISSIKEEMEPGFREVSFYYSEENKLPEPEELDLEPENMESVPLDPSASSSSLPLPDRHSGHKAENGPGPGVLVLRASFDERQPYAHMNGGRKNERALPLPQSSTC
Mitogen-activated protein kinase kinase kinase kinase 1 (Homo sapiens), sequence (Q92918 whole entry, looked up): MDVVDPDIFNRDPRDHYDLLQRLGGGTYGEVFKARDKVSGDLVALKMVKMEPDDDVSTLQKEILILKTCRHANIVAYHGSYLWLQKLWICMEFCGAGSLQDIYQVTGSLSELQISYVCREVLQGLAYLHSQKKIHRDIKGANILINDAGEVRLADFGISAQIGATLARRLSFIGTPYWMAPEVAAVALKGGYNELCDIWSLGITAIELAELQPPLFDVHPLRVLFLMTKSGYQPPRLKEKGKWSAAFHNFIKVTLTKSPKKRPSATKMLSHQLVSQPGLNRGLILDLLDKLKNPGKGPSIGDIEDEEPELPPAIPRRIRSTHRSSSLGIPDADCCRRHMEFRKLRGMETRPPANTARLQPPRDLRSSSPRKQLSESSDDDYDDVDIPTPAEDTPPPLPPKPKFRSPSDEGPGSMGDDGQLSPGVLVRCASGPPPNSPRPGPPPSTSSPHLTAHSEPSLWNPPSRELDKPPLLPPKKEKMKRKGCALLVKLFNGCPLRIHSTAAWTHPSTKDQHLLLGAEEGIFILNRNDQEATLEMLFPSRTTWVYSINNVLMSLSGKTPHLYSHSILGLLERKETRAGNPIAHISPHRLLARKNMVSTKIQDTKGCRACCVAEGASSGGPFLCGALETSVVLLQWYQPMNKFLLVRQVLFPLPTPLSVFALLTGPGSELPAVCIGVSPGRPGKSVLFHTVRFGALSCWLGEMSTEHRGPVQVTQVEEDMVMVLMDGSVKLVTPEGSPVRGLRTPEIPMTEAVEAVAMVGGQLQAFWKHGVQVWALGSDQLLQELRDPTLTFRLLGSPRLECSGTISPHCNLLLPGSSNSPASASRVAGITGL
Serine/threonine-protein kinase PAK 6 (Homo sapiens), sequence (Q9NQU5 whole entry, looked up): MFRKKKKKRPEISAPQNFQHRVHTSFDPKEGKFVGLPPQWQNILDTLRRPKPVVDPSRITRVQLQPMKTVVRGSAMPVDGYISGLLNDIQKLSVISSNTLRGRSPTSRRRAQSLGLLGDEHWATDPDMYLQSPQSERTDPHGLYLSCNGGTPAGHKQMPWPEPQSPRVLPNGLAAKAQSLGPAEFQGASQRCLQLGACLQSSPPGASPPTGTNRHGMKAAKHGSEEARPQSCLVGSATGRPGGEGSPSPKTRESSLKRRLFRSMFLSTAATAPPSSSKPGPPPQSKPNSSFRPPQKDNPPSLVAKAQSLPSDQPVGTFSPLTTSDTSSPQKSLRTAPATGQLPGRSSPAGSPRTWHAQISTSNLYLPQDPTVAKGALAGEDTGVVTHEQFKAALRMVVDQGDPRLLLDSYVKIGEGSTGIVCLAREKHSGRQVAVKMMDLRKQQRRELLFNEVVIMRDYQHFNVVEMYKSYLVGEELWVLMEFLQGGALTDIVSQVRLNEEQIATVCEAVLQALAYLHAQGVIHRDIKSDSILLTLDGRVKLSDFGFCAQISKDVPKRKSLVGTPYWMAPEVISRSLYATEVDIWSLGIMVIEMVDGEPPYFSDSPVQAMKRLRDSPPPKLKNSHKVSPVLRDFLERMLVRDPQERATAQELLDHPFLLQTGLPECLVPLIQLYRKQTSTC
Casein kinase I isoform gamma-3 (Homo sapiens), sequence (Q9Y6M4 whole entry, looked up, canonical isoform): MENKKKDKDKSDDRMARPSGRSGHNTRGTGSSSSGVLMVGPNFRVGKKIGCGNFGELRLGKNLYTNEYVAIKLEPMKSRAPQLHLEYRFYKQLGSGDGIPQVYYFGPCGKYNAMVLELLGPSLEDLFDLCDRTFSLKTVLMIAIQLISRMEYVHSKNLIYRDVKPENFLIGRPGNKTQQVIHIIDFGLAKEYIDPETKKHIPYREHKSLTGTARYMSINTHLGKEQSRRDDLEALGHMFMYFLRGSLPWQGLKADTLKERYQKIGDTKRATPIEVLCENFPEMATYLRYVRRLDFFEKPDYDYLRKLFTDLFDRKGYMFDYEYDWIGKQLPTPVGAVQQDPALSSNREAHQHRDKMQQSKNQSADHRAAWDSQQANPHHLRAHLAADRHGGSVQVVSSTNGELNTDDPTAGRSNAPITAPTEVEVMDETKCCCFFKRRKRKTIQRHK

Regarding `CCN(CC)CCCCNc1ncc2cc(-c3cc(OC)cc(OC)c3)c(NC(=O)NC(C)(C)C)nc2n1`, the % of control in assay [1] is 100%.

In the case of `CC(=O)Nc1cccc(-n2c(=O)n(C3CC3)c(=O)c3c(Nc4ccc(I)cc4F)n(C)c(=O)c(C)c32)c1`, the % of control in assay [2] is 106%.

With `Cc1cnc(Nc2ccc(F)cc2Cl)nc1-c1c[nH]c(C(=O)N[C@H](CO)c2cccc(Cl)c2)c1`, the % of inhibition in assay [3] amounted to 2%.

For the compound `O=C(NOC[C@H](O)CO)c1ccc(F)c(F)c1Nc1ccc(I)cc1F`, the % of control in assay [4] was 67%.

Consider `Cn1cc(-n2cnc3c(NCc4nc5cc(Cl)c(Cl)cc5[nH]4)nc(N4CCOCC4)nc32)cn1`, for which the % of control in assay [5] is -4.06%. The % of inhibition in assay [6] is -18.9%.

Regarding `COc1cc(N(C)c2ccnc3ccc(C(F)(F)F)cc23)cc(OC)c1OC`, the % binding in assay [7] was determined as 86%.
